Where two headings read alike, the source gives them in different places.
Key:
[1] = system: cyclin KeGFP; test: Cyclin KeGFP reporter system (eGFP/mCherry MFI by flow cytometry);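 note: 10 μM compound for 3 h relative to DMSO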; assay type: cell-based, H. sapiens; settings: cyclin K-eGFP reporter
Description: We used the cyclin KeGFP reporter system previously described (Słabicki et al, [2020]). Lentiviral vector (Addgene plasmid #169930) was used to infect OCI-AML5 at a MOI of 5 and were selected with puromycin. Cells were seeded in methylcellulose and let grown as colonies for 10 days. Colonies were isolated, expanded and selected based on cyclin KeGFP fluorescence in presence and absence of cyclin K degrader molecules. Selected G7 clone was used for all reported experiments. Fluorescent signal of cyclin KeGFP and mCherry were quantified by flow cytometry (BD LSRII) in each condition and the geometric mean fluorescence intensity (MFI) were calculated using FlowJo (BD Biosciences). The ratio of eGFP to mCherry was normalized to DMSO-treated cells.

[2] = biological target: T1, CDK1 (Homo sapiens, UniProt P06493); test: CDK1 in vitro kinase activity, single concentration 1 μM; assay type: biochemical; settings: single concentration 1 μM
T1 construct: purchased BPS Bioscience 79597
Description: (§1) Kinase activity was assessed using the kinase assay kits from BPS Bioscience for CDK1, CDK9 and CDK12 with Kinase Glo MAX in duplicates. Compounds were tested at a single concentration of 1 μM for CDK1 and CDK9 activity, and in a dilution ranging from 0.64 nM to 50 μM for CDK12 activity. Chemiluminescence was read using the Neo Synergy BioTek plate reader.

[3] = system: OCI-AML5 cells expressing shRNA targeting CUL4A or CUL4B; test: Dose response in OCI-AML5 expressing shRNAs targeting CUL4A, CUL4B or control; assay type: cell-based, H. sapiens; settings: ratio of IC50 in shCUL4A vs shCTRL OCI-AML5 cells
[4] = system: OCI-AML5 cells; test: Dose-response proliferative assay in OCI-AML5 (4 days, CellTiterGlo); assay type: cell-based, H. sapiens; settings: read-out: IC50 in AML5
Description: Cell lines were purchased from the ATCC or donated from collaborators. OCI-AML5 cell line was cultured in αMEM, 10% heat-inactivated FBS supplemented with 10 ng/mL GM-CSF, OCI-AML1, U2OS and HEK293T cell lines in DMEM, 10% heat-inactivated FBS. Cells were maintained at 37 °C in 5% CO2 atmosphere.
Dose-response assays in primary AML specimens were performed as in chemical screen (see above) with the exception that compounds were tested in serial dilution (8 dilutions, 1:4, 10 μM down to 0.5 nM). Dose-response assays in OCI-AML5 cell line were conducted similarly with the following modifications: 300 cells per well were seeded in 50 μL of cell line media and cell viability was evaluated after 4 days in culture.

[5] = biological target: T2, CDK9/CyclinT (Homo sapiens, UniProt P50750); test: CDK9/CyclinT in vitro kinase activity, single concentration 1 μM; assay type: biochemical; settings: single concentration 1 μM
T2 construct: purchased BPS Bioscience 79628
Description: as §1

[6] = system: OCI-AML5 cells expressing shRNAs targeting CDK1, 2, 4, 7, 9, cyclin K; test: Dose response in OCI-AML5 expressing shRNAs targeting CDK1, 2, 4, 7, 9, cyclin K or control; assay type: cell-based, H. sapiens; settings: for Class: class from shRNA IC50 profile and cyclin K-eGFP degradation; for class based on cellular selectivity: IC50 in shRNA OCI-AML5 cells and cyclin KeGFP degradation
[7] = Homo sapiens, OCI-AML-5, OCI-AML5 cells
[8] = Homo sapiens, OCI-AML-5, OCI-AML5 expressing shRNA CCNK (cyclin K), read-out: IC50 shRNA CCNK
[9] = Homo sapiens, OCI-AML-5, OCI-AML5 expressing shRNA CDK1, read-out: IC50 shRNA CDK1
[10] = Homo sapiens, OCI-AML-5, OCI-AML5 expressing shRNA CDK2, read-out: IC50 shRNA CDK2
[11] = Homo sapiens, OCI-AML-5, OCI-AML5 expressing shRNA CDK4, read-out: IC50 shRNA CDK4
[12] = Homo sapiens, OCI-AML-5, OCI-AML5 expressing shRNA CDK7, read-out: IC50 shRNA CDK7
[13] = Homo sapiens, OCI-AML-5, OCI-AML5 expressing shRNA CDK9, read-out: IC50 shRNA CDK9
[14] = OCI-AML5 expressing shRNA CCNK (cyclin K), read-out: IC50 shRNA CCNK
[15] = OCI-AML5 expressing shRNA CDK1, read-out: IC50 shRNA CDK1
[16] = OCI-AML5 expressing shRNA CDK2, read-out: IC50 shRNA CDK2
[17] = OCI-AML5 expressing shRNA CDK4, read-out: IC50 shRNA CDK4
[18] = OCI-AML5 expressing shRNA CDK7, read-out: IC50 shRNA CDK7
[19] = OCI-AML5 expressing shRNA CDK9, read-out: IC50 shRNA CDK9

T1 sequence (P06493 whole entry): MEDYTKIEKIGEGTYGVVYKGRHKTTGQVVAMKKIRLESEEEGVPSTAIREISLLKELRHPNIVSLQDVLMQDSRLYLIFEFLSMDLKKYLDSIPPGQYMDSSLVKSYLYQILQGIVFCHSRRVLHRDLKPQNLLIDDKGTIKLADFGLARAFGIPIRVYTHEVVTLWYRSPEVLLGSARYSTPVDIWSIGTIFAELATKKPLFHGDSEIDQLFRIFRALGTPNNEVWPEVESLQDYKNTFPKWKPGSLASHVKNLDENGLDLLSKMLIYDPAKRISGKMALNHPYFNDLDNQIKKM
T1 sequence (P14635 whole entry partner): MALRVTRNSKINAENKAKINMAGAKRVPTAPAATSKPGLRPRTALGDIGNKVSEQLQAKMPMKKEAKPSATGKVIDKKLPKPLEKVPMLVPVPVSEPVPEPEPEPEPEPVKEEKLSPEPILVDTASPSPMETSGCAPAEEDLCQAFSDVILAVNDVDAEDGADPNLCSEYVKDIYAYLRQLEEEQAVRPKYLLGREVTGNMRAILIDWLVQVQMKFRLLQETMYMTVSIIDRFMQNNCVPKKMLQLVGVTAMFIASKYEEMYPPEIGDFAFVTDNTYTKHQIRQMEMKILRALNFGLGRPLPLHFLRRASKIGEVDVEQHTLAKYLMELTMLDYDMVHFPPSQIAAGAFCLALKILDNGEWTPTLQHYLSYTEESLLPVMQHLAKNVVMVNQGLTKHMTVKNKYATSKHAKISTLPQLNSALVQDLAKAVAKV
T2 sequence (P50750 whole entry): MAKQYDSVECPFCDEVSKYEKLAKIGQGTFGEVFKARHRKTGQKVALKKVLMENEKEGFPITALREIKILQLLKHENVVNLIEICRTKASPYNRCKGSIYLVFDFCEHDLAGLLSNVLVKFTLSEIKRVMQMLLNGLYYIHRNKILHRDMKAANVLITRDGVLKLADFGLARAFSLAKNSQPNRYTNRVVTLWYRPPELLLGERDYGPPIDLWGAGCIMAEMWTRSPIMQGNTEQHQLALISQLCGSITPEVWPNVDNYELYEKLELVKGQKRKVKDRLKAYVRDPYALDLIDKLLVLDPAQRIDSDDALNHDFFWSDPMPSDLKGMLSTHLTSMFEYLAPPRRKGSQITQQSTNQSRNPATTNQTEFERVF
T2 sequence (O60563 whole entry partner): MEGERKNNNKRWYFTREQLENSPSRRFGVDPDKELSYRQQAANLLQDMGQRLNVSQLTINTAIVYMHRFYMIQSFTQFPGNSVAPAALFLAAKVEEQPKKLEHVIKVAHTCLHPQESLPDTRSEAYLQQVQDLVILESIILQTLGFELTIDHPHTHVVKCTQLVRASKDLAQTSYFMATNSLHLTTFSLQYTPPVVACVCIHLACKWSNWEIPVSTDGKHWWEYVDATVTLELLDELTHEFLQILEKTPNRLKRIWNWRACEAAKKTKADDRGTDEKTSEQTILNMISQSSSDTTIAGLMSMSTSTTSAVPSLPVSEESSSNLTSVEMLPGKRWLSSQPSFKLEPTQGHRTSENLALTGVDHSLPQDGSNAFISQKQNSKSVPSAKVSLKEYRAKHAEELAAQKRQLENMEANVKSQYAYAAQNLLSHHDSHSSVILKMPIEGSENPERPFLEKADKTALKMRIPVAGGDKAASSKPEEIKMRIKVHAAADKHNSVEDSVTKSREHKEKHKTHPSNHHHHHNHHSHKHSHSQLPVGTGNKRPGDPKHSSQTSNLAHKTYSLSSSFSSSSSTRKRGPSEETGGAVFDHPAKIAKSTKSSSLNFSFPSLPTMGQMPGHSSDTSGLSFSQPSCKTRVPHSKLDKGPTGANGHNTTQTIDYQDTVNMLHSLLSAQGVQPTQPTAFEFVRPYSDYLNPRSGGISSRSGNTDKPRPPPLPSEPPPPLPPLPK

inhibition at 1 µM [2] [%]	IC50 [4, 7] [nM]	inhibition at 1 µM [5] [%]	IC50 [6, 8] [nM]	IC50 [6, 9] [nM]	IC50 [6, 10] [nM]	IC50 [6, 11] [nM]	IC50 [6, 12] [nM]	IC50 [6, 13] [nM]	SMILES	% degradation cyclin K-eGFP [1] [%]	Ratio shCUL4A/shCTRL [3]	Class [6]	class based on cellular selectivity [6]	further results
65	3400	50	2940	929	2830	3720	2860	1800	Cc1ccc(CC(=O)Nc2ncc(SCc3cccnc3)s2)cc1 [UOM-005202]	28	0.7	2	–	–
46	> 10000	39	> 10000	6250	> 10000	> 10000	> 10000	> 10000	CC(C)(C)OC(=O)N1CCC(CC(=O)Nc2ncc(SCc3cccnc3)s2)C1 (stereo not drawn) [UOM-005226]	2	1.24	2	–	–
100	2450	100	1850	908	2320	2280	2240	1180	O=C(Cc1cccnc1)Nc1ncc(SCc2cccnc2)s1 [UOM-005249]	10	0.98	2	Class II	–
70	361	67	135	502	544	509	578	369	O=C(Cc1ccc2ccccc2c1)Nc1ncc(SCc2cccnc2)s1 [UOM-005428]	80	2.81	1	Class I (effective cyclin K MGDs (decreased IC50 in cyclin K depleted cells only, and >65% degradation of cyclin KeGFP))	–
25	422	67	148	493	457	408	525	367	O=C(Cc1ccc(-c2ccccc2)cc1)Nc1ncc(SCc2cccnc2)s1 [UOM-005429]	80	2.25	1	–	–
83	> 10000	82	7680	7310	> 10000	> 10000	> 10000	7720	C=C(C(=O)Nc1ncc(SCc2cccnc2)s1)c1ccc(CC(C)C)cc1 [UOM-005430]	60	0.36	mixed 1-2	–	–
–	–	–	–	–	–	–	–	–	COc1ccc2cc([C@H](C)C(=O)Nc3ncc(SCc4cccnc4)s3)ccc2c1 [UOM-005431]	78	2.43	1	–	% CDK1 inhibition [2]: 53%; IC50 ([4]; OCI-AML5 cells): 895 nM; % CDK9 inhibition [5]: 78%; IC50 [6, 14]: 396 nM; IC50 [6, 15]: 1080 nM; IC50 [6, 16]: 1160 nM; IC50 [6, 17]: 979 nM; IC50 [6, 18]: 1080 nM; IC50 [6, 19]: 876 nM
–	–	–	–	–	–	–	–	–	O=C(Cc1ccc(CNC(=O)OCC2c3ccccc3-c3ccccc32)cc1)Nc1ncc(SCc2cccnc2)s1 [UOM-005432]	5	1.02	2	Class II	% CDK1 inhibition [2]: 100%; IC50 ([4]; OCI-AML5 cells): 840 nM; % CDK9 inhibition [5]: 62%; IC50 [6, 14]: 753 nM; IC50 [6, 15]: 293 nM; IC50 [6, 16]: 886 nM; IC50 [6, 17]: 895 nM; IC50 [6, 18]: 807 nM; IC50 [6, 19]: 391 nM
70	210	90	78.6	154	197	227	221	152	CC(=O)Nc1ccc(CC(=O)Nc2ncc(SCc3cccnc3)s2)cc1 [UOM-005473]	67	2.59	mixed 1-2	–	–
100	750	63	574	314	730	709	658	299	O=C(Cc1ccc(NC(=O)c2cccnc2)cc1)Nc1ncc(SCc2cccnc2)s1 [UOM-005475]	0	1.05	2	–	–
87	660	66	576	350	574	626	646	270	O=C(Cc1ccc(NC(=O)c2ccncc2)cc1)Nc1ncc(SCc2cccnc2)s1 [UOM-005476]	1	0.87	2	Class II	–
37	1950	100	888	2240	2420	1920	2270	1690	O=C(Cc1coc2cc3c(cc12)CCC3)Nc1ncc(SCc2cccnc2)s1 [UOM-005479]	76	1.94	1	Class I (effective cyclin K MGDs (decreased IC50 in cyclin K depleted cells only, and >65% degradation of cyclin KeGFP))	–
35	1070	64	481	566	912	897	916	554	O=C(Cc1ccc(-c2ccncc2)cc1)Nc1ncc(SCc2cccnc2)s1 [UOM-005550]	35	0.87	mixed 1-2	–	–
–	–	–	–	–	–	–	–	–	CN(C)c1ccc(CC(=O)Nc2ncc(C(C)(C)C)s2)cc1 [UOM-005605]	76	4.63	1	Class I (effective cyclin K MGDs (decreased IC50 in cyclin K depleted cells only, and >65% degradation of cyclin KeGFP))	% CDK1 inhibition [2]: 1%; IC50 ([4]; OCI-AML5 cells): 1040 nM; % CDK9 inhibition [5]: 5%; IC50 [6, 14]: 341 nM; IC50 [6, 15]: 1140 nM; IC50 [6, 16]: 1140 nM; IC50 [6, 17]: 996 nM; IC50 [6, 18]: 1080 nM; IC50 [6, 19]: 968 nM
81	1330	65	785	700	1440	1840	1470	794	O=C(Cc1ccc(N2CCOCC2)cc1)Nc1ncc(SCc2cccnc2)s1 [UOM-005606]	45	1.07	mixed 1-2	–	–
